PubChem BioAssay AID1963846 (Molecular Pharmacology Branch, DTP, NCI, 2024)

System: 454973-116-R2-J3-PDC complex spheroid viability
Test: Anticancer human tumor 454973-116-R2-J3-PDC patient-derived pancreatic carcinoma cell line growth inhibition [POLQ]
Conditions: for IC50: curve of first compound; for viability, T/C: stronger effect = lower value
Summary of the method: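 Growth inhibition in 3D: complex spheroids (tumor PDC, HUVEC, MSC) treated with POLQ inhibitor combinations; where Cmax unknown, highest tested concentration 10 microM, except SN-38 at 1 microM.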

[1] = second compound 0.0316 µM, first compound 0.0316 µM
[2] = second compound 0.0316 µM, first compound 0.1 µM
[3] = second compound 0.0316 µM, first compound 0.316 µM
[4] = second compound 0.0316 µM, first compound 1 µM
[5] = second compound 0.0316 µM, first compound 3.16 µM
[6] = second compound 0.0316 µM, first compound 10 µM
[7] = second compound 0.1 µM, first compound 0.0316 µM
[8] = second compound 0.1 µM, first compound 0.1 µM
[9] = second compound 0.1 µM, first compound 0.316 µM
[10] = second compound 0.1 µM, first compound 1 µM
[11] = second compound 0.1 µM, first compound 3.16 µM
[12] = second compound 0.1 µM, first compound 10 µM
[13] = second compound 0.316 µM, first compound 0.0316 µM
[14] = second compound 0.316 µM, first compound 0.1 µM
[15] = second compound 0.316 µM, first compound 0.316 µM
[16] = second compound 0.316 µM, first compound 1 µM
[17] = second compound 0.316 µM, first compound 3.16 µM
[18] = second compound 0.316 µM, first compound 10 µM
[19] = second compound 1 µM, first compound 0.0316 µM
[20] = second compound 1 µM, first compound 0.1 µM
[21] = second compound 1 µM, first compound 0.316 µM
[22] = second compound 1 µM, first compound 1 µM
[23] = second compound 1 µM, first compound 3.16 µM
[24] = second compound 1 µM, first compound 10 µM
[25] = second compound 3.16 µM, first compound 0.0316 µM
[26] = second compound 3.16 µM, first compound 0.1 µM
[27] = second compound 3.16 µM, first compound 0.316 µM
[28] = second compound 3.16 µM, first compound 1 µM
[29] = second compound 3.16 µM, first compound 3.16 µM
[30] = second compound 3.16 µM, first compound 10 µM
[31] = second compound 10 µM, first compound 0.0316 µM
[32] = second compound 10 µM, first compound 0.1 µM
[33] = second compound 10 µM, first compound 0.316 µM
[34] = second compound 10 µM, first compound 1 µM
[35] = second compound 10 µM, first compound 3.16 µM
[36] = second compound 10 µM, first compound 10 µM
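Also: spheroids exposed to drugs for seven days before measurement.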
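For viability, T/C in this document: percent viability relative to DMSO vehicle control wells taken as 100%.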

COc1cccc2c1C(=O)c1c(O)c3c(c(O)c1C2=O)CC(O)(C(=O)CO)CC3OC1CC(N)C(O)C(C)O1 (stereo not drawn) + Cc1cccc(N(C)C(=O)C2C(O)CCN2c2nc(C)cc(C(F)(F)F)c2C#N)c1
IC50 (second compound 0.0316 µM): 59.7 nM | IC50 (second compound 0.1 µM): 62.8 nM | IC50 (second compound 0.316 µM): 61.5 nM | IC50 (second compound 1 µM): 59.8 nM | IC50 (second compound 3.16 µM): 48.6 nM | IC50 (second compound 10 µM): 54.6 nM | viability, T/C [1]: 72.9% | viability, T/C [2]: 25.9% | viability, T/C [3]: 22.1% | viability, T/C [4]: 10.9% | viability, T/C [5]: 0.31% | viability, T/C [6]: 0.23% | viability, T/C [7]: 71.8% | viability, T/C [8]: 29.3% | viability, T/C [9]: 26.9% | viability, T/C [10]: 8.87% | viability, T/C [11]: 1.7% | viability, T/C [12]: 0.22% | viability, T/C [13]: 70.3% | viability, T/C [14]: 30.2% | viability, T/C [15]: 24.2% | viability, T/C [16]: 9.69% | viability, T/C [17]: 0.35% | viability, T/C [18]: 0.28% | viability, T/C [19]: 67.8% | viability, T/C [20]: 30.9% | viability, T/C [21]: 26.6% | viability, T/C [22]: 9.52% | viability, T/C [23]: 0.41% | viability, T/C [24]: 0.32% | viability, T/C [25]: 56.3% | viability, T/C [26]: 38.4% | viability, T/C [27]: 25.6% | viability, T/C [28]: 6.92% | viability, T/C [29]: 0.38% | viability, T/C [30]: 0.33% | viability, T/C [31]: 63.8% | viability, T/C [32]: 33% | viability, T/C [33]: 22% | viability, T/C [34]: 7.02% | viability, T/C [35]: 0.38% | viability, T/C [36]: 0.49%

CCCS(=O)(=O)Nc1ccc(F)c(C(=O)c2c[nH]c3ncc(-c4ccc(Cl)cc4)cc23)c1F + Cc1cccc(N(C)C(=O)C2C(O)CCN2c2nc(C)cc(C(F)(F)F)c2C#N)c1
IC50 (second compound 0.0316 µM): 8180 nM | IC50 (second compound 0.1 µM): 8770 nM | IC50 (second compound 0.316 µM): 8920 nM | IC50 (second compound 1 µM): 8400 nM | IC50 (second compound 3.16 µM): 8130 nM | IC50 (second compound 10 µM): 6950 nM | viability, T/C [1]: 108% | viability, T/C [2]: 116% | viability, T/C [3]: 112% | viability, T/C [4]: 118% | viability, T/C [5]: 113% | viability, T/C [6]: 36.7% | viability, T/C [7]: 105% | viability, T/C [8]: 111% | viability, T/C [9]: 115% | viability, T/C [10]: 122% | viability, T/C [11]: 111% | viability, T/C [12]: 42.1% | viability, T/C [13]: 108% | viability, T/C [14]: 116% | viability, T/C [15]: 118% | viability, T/C [16]: 113% | viability, T/C [17]: 123% | viability, T/C [18]: 42.7% | viability, T/C [19]: 136% | viability, T/C [20]: 110% | viability, T/C [21]: 114% | viability, T/C [22]: 111% | viability, T/C [23]: 126% | viability, T/C [24]: 37.3% | viability, T/C [25]: 117% | viability, T/C [26]: 110% | viability, T/C [27]: 104% | viability, T/C [28]: 105% | viability, T/C [29]: 115% | viability, T/C [30]: 36.8% | viability, T/C [31]: 120% | viability, T/C [32]: 112% | viability, T/C [33]: 110% | viability, T/C [34]: 111% | viability, T/C [35]: 118% | viability, T/C [36]: 20.3%

COc1cc2cc(C(=O)CCC(=O)O)sc2cc1OC + Nc1ccc(C#CCN(C(=O)Cc2ncc(C(F)(F)F)cc2C(F)(F)F)c2ccc(F)cc2)nn1
IC50 (second compound 0.0316 µM): > 10000 nM | IC50 (second compound 0.1 µM): > 10000 nM | IC50 (second compound 0.316 µM): > 10000 nM | IC50 (second compound 1 µM): > 10000 nM | IC50 (second compound 3.16 µM): > 10000 nM | IC50 (second compound 10 µM): > 10000 nM | viability, T/C [1]: 96.7% | viability, T/C [2]: 101% | viability, T/C [3]: 112% | viability, T/C [4]: 101% | viability, T/C [5]: 107% | viability, T/C [6]: 98.9% | viability, T/C [7]: 98.2% | viability, T/C [8]: 103% | viability, T/C [9]: 100% | viability, T/C [10]: 105% | viability, T/C [11]: 107% | viability, T/C [12]: 104% | viability, T/C [13]: 93.8% | viability, T/C [14]: 101% | viability, T/C [15]: 107% | viability, T/C [16]: 104% | viability, T/C [17]: 111% | viability, T/C [18]: 94.3% | viability, T/C [19]: 110% | viability, T/C [20]: 103% | viability, T/C [21]: 106% | viability, T/C [22]: 122% | viability, T/C [23]: 108% | viability, T/C [24]: 99.2% | viability, T/C [25]: 118% | viability, T/C [26]: 110% | viability, T/C [27]: 113% | viability, T/C [28]: 109% | viability, T/C [29]: 116% | viability, T/C [30]: 107% | viability, T/C [31]: 115% | viability, T/C [32]: 114% | viability, T/C [33]: 118% | viability, T/C [34]: 117% | viability, T/C [35]: 119% | viability, T/C [36]: 105%

COc1cccc2c1C(=O)c1c(O)c3c(c(O)c1C2=O)CC(O)(C(=O)CO)CC3OC1CC(N)C(O)C(C)O1 (stereo not drawn) + Nc1ccc(C#CCN(C(=O)Cc2ncc(C(F)(F)F)cc2C(F)(F)F)c2ccc(F)cc2)nn1
IC50 (second compound 0.0316 µM): 37.4 nM | IC50 (second compound 0.1 µM): 36 nM | IC50 (second compound 0.316 µM): < 31.6 nM | IC50 (second compound 1 µM): < 31.6 nM | IC50 (second compound 3.16 µM): 32.2 nM | IC50 (second compound 10 µM): < 31.6 nM | viability, T/C [1]: 55.6% | viability, T/C [2]: 19.3% | viability, T/C [3]: 15.8% | viability, T/C [4]: 5.05% | viability, T/C [5]: 0.67% | viability, T/C [6]: 0.12% | viability, T/C [7]: 54.4% | viability, T/C [8]: 20.7% | viability, T/C [9]: 14.5% | viability, T/C [10]: 6.06% | viability, T/C [11]: 1.06% | viability, T/C [12]: 0.39% | viability, T/C [13]: 50.5% | viability, T/C [14]: 20.4% | viability, T/C [15]: 11.7% | viability, T/C [16]: 4.87% | viability, T/C [17]: 0.69% | viability, T/C [18]: 0.21% | viability, T/C [19]: 49.6% | viability, T/C [20]: 19.9% | viability, T/C [21]: 16.4% | viability, T/C [22]: 4.25% | viability, T/C [23]: 0.36% | viability, T/C [24]: 0.66% | viability, T/C [25]: 51.6% | viability, T/C [26]: 17.8% | viability, T/C [27]: 14.6% | viability, T/C [28]: 3.6% | viability, T/C [29]: 0.55% | viability, T/C [30]: 0.26% | viability, T/C [31]: 48.2% | viability, T/C [32]: 12.7% | viability, T/C [33]: 10.2% | viability, T/C [34]: 3.36% | viability, T/C [35]: 0.54% | viability, T/C [36]: 0.27%
